We go through 15 molecules from patent publication US6569612B1, “Photographic element containing a high-dye-yield coupler for producing a yellow hue” (Eastman Kodak Company, priority 2001, dated 2003).

The series in a line: Measuring pKas of couplers in TRITON X-100 media. It counts as physicochemical. As to the method:
Procedure for Measuring pKas of Couplers in TRITONX-100 Media:
A solution of the coupler that was ca. 5E-3 M was made with 5.0 mL of dimethyl sulfoxide solvent. A 0.50-mL aliquot of the solution was added to 3.18 g of Triton X- 100 surfactant in a 50-mL volumetric flask. Then ca. 25 mL of ca. 40-deg C. distilled water was added while swirling vigorously. The solution was then cooled to ambient temperature and diluted to 50 mL with water. Various phosphate buffer solutions as potassium salts were prepared with pHs ranging from 3.73 to 12 with ionic strength of 0.75. Ionic strength computations were done using the three pKas for phosphoric acid. A 2.0-mL aliquot of the stock coupler solution was mixed with 2.0 mL of chosen buffer in a 5-dram vial. […] A wavelength between 310 and 350 nm was typically chosen. The pH of the mixture was then measured with a CORNING Model 125 meter. A baseline reference blank spectrum was run with TRITON X-100 (surfactant) and pH 7 buffer. The data of corrected absorbances (differences from the blank spectrum) and pHs were used to compute by least-squares the pKa and the other two unknowns of high and low limiting densities. The pKa measurements are made with an experimental uncertainty within ±0.10, which depends on sources of material, the number of experimental points, number of replicates, and the like.

Setting [1] is: Table 3, TRITON X-100 media, read-out: pKa.
The mark [2] stands for this setting: Table 5, TRITON X-100 media, read-out: pKa.
[3] abbreviates: Table 7, TRITON X-100 media, read-out: pKa.
Setting [4] is: Table 4, TRITON X-100 media, read-out: pKa.
[5] abbreviates: Table 8, TRITON X-100 media, read-out: pKa.

Where two headings read alike, the source gives them in different places.

Regarding `CCCCCCCCCCCCOC(=O)c1ccc(Cl)c(NC(=O)C(C(=O)c2ccc(OC)cc2)N2C(=O)C(OCC)N(Cc3ccccc3)C2=O)c1` (stereo not drawn) [CY-1, reference compound], under setting [1], the pKa (in general, the negative logarithm of the acid dissociation constant) was 5.1.

`CCC(C)(C)c1cc(C(C)(C)CC)c2oc(/C(C#N)=C/c3ccc(N(C(=O)OC(C(=O)Nc4cc(CS(=O)(=O)c5ccccc5)ccc4Cl)C(=O)c4ccc(OC)cc4)C4CCCC4)cc3C)nc2c1` (stereo not drawn) [CY-4, reference compound]: the pKa under setting [1] amounted to 10.6.

For `CCC(C)(C)c1cc(C(C)(C)CC)c2oc(/C(C#N)=C/c3ccc(N(C(=O)OC(C(=O)Nc4cc(CS(=O)(=O)c5ccc(O)cc5)ccc4Cl)C(=O)c4ccc(OC)cc4)C4CCCC4)cc3C)nc2c1` (stereo not drawn) [CY-5, reference compound], under setting [1], the pKa amounted to 10.

Turning to `CCCCCCCCCCCCOC(=O)c1ccc(Cl)c(NC(=O)C(OC(=O)N(C)c2ccc(/C=C(\C#N)c3nc4cc(C(C)(C)C)ccc4o3)c(C)c2)C(=O)c2ccc(OC)cc2)c1` (stereo not drawn) [CY-7, reference compound], the pKa under setting [1] came to 9.1.

Turning to `CCCCCCCCCCCCNS(=O)(=O)c1ccc(NC(=O)C(OC(=O)N(c2ccc(/C=C(\C#N)c3nc4cc(C(C)(C)C)ccc4o3)c(C)c2)C2CCCC2)C(=O)c2ccc(OC)cc2)c(Cl)c1` (stereo not drawn) [CY-8, reference compound], under setting [2], the pKa was 9.5.

With `CCCCCCCCCCCCCCCCNS(=O)(=O)c1ccc(Cl)c(NC(=O)C(OC(=O)N(CCCCCCCCCCCC)c2ccc(/C=C(\C#N)c3nc4ccccc4o3)c(C)c2)C(=O)c2ccc(OC)cc2)c1` (stereo not drawn) [CY-12, reference compound], the pKa (standard measurement, read-out: pKa at the coupling site) stood at 8.7.

As to `CCCCCCCCCCCCCCCCNS(=O)(=O)c1ccc(Cl)c(NC(=O)C(OC(=O)N(CCCC)c2ccc(/C=C(\C#N)c3nc4ccccc4o3)c(C)c2)C(=O)c2ccc(OC)cc2)c1` (stereo not drawn) [CY-13, reference compound], the pKa under setting [3] was found to be 8.8.

For the molecule `CCCCCCCCCCCCS(=O)(=O)c1ccc(NC(=O)C(OC(=O)N(C)c2ccc(/C=C(\C#N)c3nc4cc(C(C)(C)C)ccc4o3)c(C)c2)C(=O)c2ccccc2)c(Cl)c1` (stereo not drawn) [Coupler Y-1], the pKa under setting [1] was determined as 7.4.

As to `CCCCCCCCCCCCCCCCNS(=O)(=O)c1ccc(Cl)c(NC(=O)C(OC(=O)N(C)c2ccc(/C=C(\C#N)c3nc4cc(C(C)(C)C)ccc4o3)c(C)c2)C(=O)c2ccc(OC)cc2)c1` (stereo not drawn) [Coupler Y-2], the pKa under setting [1] was 8.5.

On to `CCCCCCCCCCCCS(=O)(=O)c1ccc(NC(=O)C(OC(=O)N(c2ccc(/C=C(\C#N)c3nc4cc(C(C)(C)C)ccc4o3)c(C)c2)C2CCCC2)C(=O)c2ccccc2)c(Cl)c1` (stereo not drawn) [Coupler Y-3], for which the pKa under setting [4] was found to be 7.8.

Regarding `COc1ccc(C(=O)C(OC(=O)N(c2ccc(/C=C(\C#N)c3nc4cc(C(C)(C)C)ccc4o3)c(C)c2)C2CCCC2)C(=O)Nc2ccc([N+](=O)[O-])cc2Cl)cc1` (stereo not drawn) [Coupler Y-4], the pKa under setting [4] worked out at 8.2.

In the case of `CCC(C)(C)c1cc(C(C)(C)CC)c2oc(/C(C#N)=C/c3ccc(N(C(=O)OC(C(=O)Nc4ccc([N+](=O)[O-])cc4Cl)C(=O)c4ccccc4)C4CCCC4)cc3C)nc2c1` (stereo not drawn) [Coupler Y-5], under setting [2], the pKa amounted to 7.4.

For the molecule `CCCCCCCCCCCCNS(=O)(=O)c1ccc(NC(=O)C(OC(=O)N(c2ccc(/C=C(\C#N)c3nc4ccccc4o3)c(C)c2)C2CCCC2)C(=O)c2ccccc2)c(Cl)c1` (stereo not drawn) [Coupler Y-9], the pKa under setting [3] came to 8.

As to `CCCCCCCCCCCCS(=O)(=O)c1ccc(NC(=O)C(OC(=O)N(c2ccc(/C=C(\C#N)c3nc4ccccc4o3)c(C)c2)C2CCCC2)C(=O)c2ccc(Cl)cc2)c(Cl)c1` (stereo not drawn) [Coupler Y-10], the pKa under setting [5] came to 7.2.

Take `CCCCCCCCCCCCS(=O)(=O)c1ccc(NC(=O)C(OC(=O)N(CC)c2ccc(/C=C(\C#N)c3nc4cc(C(C)(C)CC(C)(C)C)ccc4o3)c(C)c2)C(=O)c2ccc(Cl)cc2)c(Cl)c1` (stereo not drawn) [Coupler Y-11]: the pKa under setting [5] was 7.
